Source: US8993309B2, “Predictive marker for topoisomerase I inhibitors” (Boston Medical Center Corporation, priority 2008, dated 2015)

Legend:
[1] = system: biosynthesis of nucleic acids; details: cited from earlier work
topoI [2] = target: T1, topoI (Homo sapiens, UniProt P11387); assay: topoI down-regulation in BRCA1-silenced cells; format: cell-based; details: BRCA1-silenced Hela cells
T1 construct: endogenous in cells
T1 sequence (P11387 1-765): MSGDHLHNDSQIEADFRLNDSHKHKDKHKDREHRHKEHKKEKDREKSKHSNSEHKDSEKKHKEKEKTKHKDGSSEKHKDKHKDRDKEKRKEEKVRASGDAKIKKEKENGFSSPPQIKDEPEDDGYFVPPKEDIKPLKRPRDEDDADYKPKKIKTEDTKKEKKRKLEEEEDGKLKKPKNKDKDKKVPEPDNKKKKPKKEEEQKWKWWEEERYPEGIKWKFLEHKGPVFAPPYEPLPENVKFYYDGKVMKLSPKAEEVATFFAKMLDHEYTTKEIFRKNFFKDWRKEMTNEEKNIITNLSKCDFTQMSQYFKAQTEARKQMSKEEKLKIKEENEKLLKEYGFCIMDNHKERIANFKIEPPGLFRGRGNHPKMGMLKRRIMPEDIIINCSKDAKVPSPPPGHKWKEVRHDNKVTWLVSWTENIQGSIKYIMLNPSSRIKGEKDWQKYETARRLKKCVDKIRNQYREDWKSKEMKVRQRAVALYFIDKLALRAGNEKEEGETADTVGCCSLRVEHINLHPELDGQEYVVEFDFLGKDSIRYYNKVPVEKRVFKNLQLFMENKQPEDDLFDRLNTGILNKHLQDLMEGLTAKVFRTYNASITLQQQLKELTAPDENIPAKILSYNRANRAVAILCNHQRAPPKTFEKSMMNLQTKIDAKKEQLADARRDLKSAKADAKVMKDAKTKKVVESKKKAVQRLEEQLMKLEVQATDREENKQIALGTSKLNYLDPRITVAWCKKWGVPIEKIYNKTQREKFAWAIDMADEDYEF

Walker 256 tumor = details: experimentally transplanted Walker 256 tumor in rats; cited from earlier work
topoI [3] = target: T2, topoI (Mus musculus, UniProt Q04750); assay: topoI down-regulation in response to CPT in DNA-PK deficient and efficient cells (anti-topoI immunoblot); format: cell-based
T2 construct: endogenous in cells; host or cells: ScH8 (DNA-PK +/+) and ScSv3 (DNA-PK -/-) mouse embryo fibroblasts
T2 sequence (Q04750 1-767): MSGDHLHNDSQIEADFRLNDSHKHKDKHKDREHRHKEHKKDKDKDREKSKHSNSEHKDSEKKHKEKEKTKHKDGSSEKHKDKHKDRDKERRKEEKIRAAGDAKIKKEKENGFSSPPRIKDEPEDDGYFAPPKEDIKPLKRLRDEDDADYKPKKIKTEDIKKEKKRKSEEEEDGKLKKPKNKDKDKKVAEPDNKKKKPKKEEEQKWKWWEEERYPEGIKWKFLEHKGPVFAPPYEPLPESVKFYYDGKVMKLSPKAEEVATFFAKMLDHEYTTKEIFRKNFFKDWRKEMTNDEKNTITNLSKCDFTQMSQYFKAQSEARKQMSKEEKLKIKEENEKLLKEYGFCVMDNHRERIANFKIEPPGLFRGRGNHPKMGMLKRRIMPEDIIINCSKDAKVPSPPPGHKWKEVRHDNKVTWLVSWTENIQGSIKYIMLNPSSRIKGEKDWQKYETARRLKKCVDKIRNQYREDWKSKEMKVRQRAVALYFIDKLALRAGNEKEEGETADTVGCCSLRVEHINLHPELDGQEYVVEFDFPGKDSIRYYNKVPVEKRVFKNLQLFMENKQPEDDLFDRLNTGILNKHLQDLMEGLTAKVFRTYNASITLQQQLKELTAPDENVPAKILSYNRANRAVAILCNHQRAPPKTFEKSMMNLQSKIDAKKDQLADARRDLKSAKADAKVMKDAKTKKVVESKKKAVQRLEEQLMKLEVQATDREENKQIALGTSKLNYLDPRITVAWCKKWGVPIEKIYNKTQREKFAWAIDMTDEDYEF
Experimental: (§1) Protein levels in FIG. 8A were determined by immuno blot analysis of cell lysate with anti-βactin.
(§2) Tissue Culture: Human cervical carcinoma (HeLa) cells, MCF-7 breast cancer cells, BT-474 breast cancer cells and Mouse embryo fibroblasts (MEF) reconstituted for stable expression of DNA-PK (ScH8) and […] MEF (ScSv3, DNA-PK −/−) were grown and maintained in Dulbecco's Modification of Eagle's Medium containing 10% fetal bovine serum, 2 mM L-Glutamine 100 units/mL of Streptomycin and 100 units/mL of Penicillin.
Cell Synchronization and Drug Treatment. MEF cells were phase-synchronized by serum starvation. Cells were incubated for 30 hours in Dulbecco's Modification of Eagle Medium containing 0.1% fetal bovine serum followed by 16 hour incubation in Medium containing 10% fetal bovine serum. Topo I inhibitor treatment was performed using a 25 μM concentration of Irinotecan (Sigma). Transient transfection of cell lines for BRCA1 and BARD1 expression was performed using the Geneporter 2 transfection kit (GenLantis).
Immunoprecipitation and immunoblot analysis: Cell lysates were prepared for immunoprecipitation and soluble proteins were incubated with anti-BRCA1 or anti-topoI (Topogen, Inc.). The immunoprecipitates were subjected to immunoblotting with anti-BRCA1 or anti-topoI. Antigen-antibody complexes were visualized by enhanced chemiluminescence (ECL detection system, GE, Piscataway, N.J.).

leukemia L-1210 = details: experimentally transplanted leukemia L-1210 in mice; cited from earlier work
DNA-PK -/- cells = assay: cell death of DNA-PK -/- and DNA-PK +/+ cells in response to CPT; format: cell-based, Mouse; details: DNA-PK -/- cells compared to DNA-PK +/+ cells, in response to CPT (FIG. 8C)
Experimental: as §1, §2

GFP-topoI and BRCA1 = assay: co-immunostaining of GFP-topoI and BRCA1 after CPT treatment; format: cell-based; details: in response to treatment with CPT
DNA-PK = target: T3, DNA-PK (Homo sapiens, UniProt P78527); assay: CPT induced topoI downregulation in HeLa cells with or without DNA-PK inhibitor (anti-topoI immunoblot); format: cell-based; details: CPT treatment plus DNA-PK inhibitor (FIG. 9)
T3 construct: endogenous in cells; host or cells: HeLa
Experimental: Protein levels were determined by immuno blot analysis of cell lysate with anti-β actin.

HIV-1 = details: acute and chronic infections, in vitro; cited from earlier work

## CC[C@@]1(O)C(=O)OCc2c1cc1n(c2=O)Cc2cc3ccccc3nc2-1 [CPT, camptothecin]
[1]
  inhibitory activity toward the biosynthesis of nucleic acids: strong inhibitory activity
topoI [2]
  rate of topoI down-regulation: decrease in the rate of topoI down-regulation
Walker 256 tumor
  anti-tumor activity: potent anti-tumor activity
topoI [3]; DNA-PK +/+ cells compared with DNA-PK deficient cells
  rate of topoI down-regulation in response to CPT: significantly higher rate of topoI down-regulation in DNA-PK +/+ cells
topoI [3]; ScH8 cells (DNA-PK +/+) treated with CPT, six hours
  degradation of topoI: complete degradation
topoI [3]; ScSV3 cells (DNA-PK -/-) treated with CPT, six hours
  topoI remained intact: more than 50%
Leukemia L-1210
  anti-tumor activity: potent anti-tumor activity
DNA-PK -/- cells
  percentage of cell death: higher percentage of cell death
GFP-topoI and BRCA1
  localization of GFP-topoI and BRCA1: colocalized in DNA repair foci

## O=c1cc(N2CCOCC2)oc2c1ccc1ccccc12 [NU7026]
DNA-PK
  effect on CPT induced topoI downregulation by UPP: obliterates CTP induced topoI downregulation

## CC[C@@]1(O)C(=O)OCc2c1cc1n(c2=O)Cc2cc3c(CN(C)C)c(O)ccc3nc2-1 [Topotecan]
HIV-1
  inhibition of HIV-1 infections: inhibit both acute and chronic HIV-1 infections
